From US7812142B2, “Pentose derivatives as anti-hyperglycemic drugs” (Yissum Research Development Company of the Hebrew …, priority 2002, dated 2010)

Tests used:
3T3-L1 adipocytes = assay: Screening of methylated xylose derivatives, dGlc uptake assay (Table 1); assay type: cell-based; conditions: Mean±SEM (n=3-6); for HEXOSE UPTAKE (Percent of Control) Without Insulin: 3T3-L1 adipocytes 24 hr at 20 mM glucose, test compounds 0.1-20.0 mM, 2-45 hr; for HEXOSE UPTAKE (Percent of Control) With Insulin: as E1, 500 nM insulin 30 min prior to uptake assay
From the text: There are five carbon atoms in xylose available for chemical modifications. Each of these atoms was methylated by modifications of published chemical procedures [Bollenback, G. N. (1963) In Methods in carbohydrate chemistry, vol. 2 (Whistler, R. L. and Wolfrom, M. L., eds.), pp. 326-331, Academic Press, New York; Bowering, W. and Timel, T. (1958) Can. J. Chem. 36, 283-285; Levine, P. and Raymomd, A. (1933) J. Biol. Chem. 102, 331-344; Takeo, K. (1992) Carbohyd. Res. 224, 311-318]. All compounds were purified by HPLC and their structure verified by NMR spectroscopy. […] At the end of the incubation period the cells were taken for a standard [^3H]-2-deoxy-D-glucose uptake assay in the absence or the presence of 500 nM insulin (30 min exposure prior to the uptake assay).
3T3-L1 adipocytes and L6 myotubes were maintained for 24 hr at 20 mM glucose. Test compounds were added (0.1-20.0 mM) and the cells were incubated further for 2-45 hr. At the end of the incubation periods the cells were washed and taken for a standard [^3H]2-deoxy-D-glucose (dGlc) uptake assay. Uptake values (given for control cells) are in nmol dGlc/mg protein/min. Mean±SEM (n=3-6).
(§1) Uptake assay of the tritiated glucose analogue, 2-deoxy-D-glucose, is routinely performed as described in [Sasson, S. and Cerasi, E. (1986) J. Biol. Chem. 261, 16827-16833].

[1] = test system: glucose uptake in cultured cells; assay: In vitro glucose uptake / hexose transport in cultured cells with xylose derivatives (Table 2); assay type: cell-based; conditions: for EC50 / ECmax: EC = Effective concentration
Method: Table 2 summarizes in vitro results obtained with some of these newly synthesized xylose derivatives.
as §1
All new compounds are screened and tested first in various insulin-sensitive cell cultures used routinely in the laboratory (skeletal muscle and adipose cell lines). In addition these drugs were tested in non-insulin-sensitive cells such as primary cultures of bovine and porcine vascular endothelial and smooth muscle cells. Active compounds were tested ex-vivo on isolated rat soleus muscles. All cell cultures and tissues were maintained under hyperglycemic condition prior to the addition of the test compounds. Dose-response and time-course experiments determine which of the derivatives are subsequently tested in animal models. For each potent compound the total cell content and plasma membrane abundance of GLUT-1 and GLUT-4 was determined, as described above. The same biotinylation technique was employed to determine the total and plasma membrane content of both transporters in isolated mouse or rat soleus muscles treated with potent compounds.

C2 myotubes = assay: dGlc uptake assay in C2 myotubes; assay type: cell-based, mouse; conditions: 20 mM pentose, preconditioned with 20 mM glucose (FIG. 7)
Method: The time-course of D-xylose effect in two types of skeletal muscle cells (L8 myocytes and C2 myotubes) was studied. L8 myocytes and C2 myotubes preconditioned in 20 mM glucose were incubated with 20 mM xylose. After 90 min the cells were washed and incubated with 20 mM glucose, and subjected to a deoxyglucose dGlc uptake assay (14).
The inventors have also measured the effect of different doses of D-xylose in C2 myotubes. C2 myotubes preconditioned with 20 mM glucose received fresh medium containing 20 mM glucose or increasing concentrations of D-xylose. Standard dGlc uptake assay was performed after 1 hr incubation. […] D-xylose augmented the rate of hexose transport ˜2-fold within 1-2 hr; half-maximal stimulation was observed within 20-30 min, as shown in FIG. 2.
However, in the above experiments the cells were exposed to D-xylose after removal of the conditioning glucose concentration. […] The inventors therefore added 20 mM D-xylose to C2 myotubes in the presence of 8 or 16 mM glucose and followed its effect.
It has shown before by the inventors of the present invention that deoxyglucose (dGlc) depresses the hexose transport system in myocytes and that a subsequent incubation with low (even no) glucose fails to reverse this effect of dGlc [Sasson, S et al (1997)]. The inventors have therefore measured the effect of D-xylose on rate of hexose transport following treatment with dGlc. In one experiment, C2 myotubes preconditioned with 2 mM glucose received fresh medium containing 2 mM dGlc. A portion of the cells were washed after 30 min and received 20 MM D-xylose or 2 mM D-glucose, and subjected to a dGlc uptake assay at different time points. In another experiment, L8 myocytes preconditioned with 2 mM glucose were washed and incubated with 2 mM xylose or 2 mM dGlc. A portion of the cells were washed again after 2 hr and incubated with 20 mM xylose, and subjected to a dGlc uptake assay at different time points.
as §1

PKB = PKB phosphorylation immunoblot in L6 myotubes; assay type: cell-based, rat; conditions: 23.0 mM glucose; 100 nM insulin, 20 mM xylose, 5 mM EH-114 or 250 μM EH-40, up to 24 hrs (FIG. 11B)
Method: FIG. 11B: Effects of insulin D-xylose and xylose derivatives on PKB phosphorylation. L6 myotubes were maintained at 5.5 mM or 23.0 mM glucose. The latter were treated with 100 nM insulin, 20 mM xylose, 5 mM EH-114 or 250 μM EH-40 up to 24 hrs. At the indicated times treated myotubes were collected, homogenized and lysed and the soluble protein fraction was isolated. The control myotubes were collected at the end of the 24 hr incubation period. Equal amounts of proteins of the various treated myotubes were separated on SDS-PAGE and immunoblotted with a specific antibody against phospho-Axt1/PKBα (Ser473). In order to test whether xylose derivative activate insulin transduction elements downstream of PI3K, the inventors tested the state of PKB phosphorylation, as shown in FIG. 11B.

L6 myotubes = assay: dGlc uptake assay in L6 myotubes; assay type: cell-based, rat; conditions: for effect of PI3-kinase inhibitor LY-249002 on the substance's stimulation of hexose transport: 60 μM inhibitor, 23.0 mM glucose (FIG. 11A), EH-40 data not shown
Method: (§2) FIG. 10: Western blot depicting effect of 3-O-propyl-D-xylose (EH-114), and 1,3-O-dimethylxylopyranoside (EH-101) on the total cell content and plasma membrane abundance of GLUT-4 in the absence or presence of insulin. L6 myotubes were maintained for 48 hr at 23 mM Glucose. The cells were than washed and received fresh medium containing the indicated additions and incubated for additional […]. Insulin was added during the last 30 min of incubation before the dGlc uptake assay.
FIG. 11A: Effect of LY-249002, a PI3-kinase inhibitor, on insulin, D-xylose, EH-101 and EH-114-mediated glucose uptake. L6 myotubes were treated as described in the legend to FIG. 10. The glucose concentration in the culture medium was 23.0 mM. The concentration of LY-294002 was 60 μM. At the end of incubation the cells were taken for the standard dGlc uptake assay. Mean±SEM, n=3.
(§3) GLUT-1 and GLUT-4 mediate glucose entry into L6 myotubes. It is established that GLUT-4 is translocated effectively and rapidly to the plasma membrane upon insulin treatment. The inventors looked at the effect of 3-O-propyl-D-xylose EH-114) and 1,3-O-dimethylxylopyranoside (EH-101) on the total cell content and plasma membrane abundance of these transporters in the absence or presence of insulin. L6 myotubes were maintained at 5.0 or 23.0 mM glucose for 48 hr and EH-114 and EH-101 were present during the last 24 hr. The cells were then taken for the standard [^3H]-2-deoxy-D-glucose uptake assay and for the biotinylation procedure for determining the amount of GLUT-1 and GLUT-4 in the plasma membrane. High glucose levels decreased the hexose transport rate by ˜50%. Insulin augmented the transport nearly 2-fold in both cases. EH-114 and EH-101 increased the transport rate 2-3-fold in the absence of insulin. Together with insulin the uptake rate was increased nearly 3-fold.
The inventors also tested the hypothesis that the active D-xylose derivatives augment the hexose transport capacity in L6 myotubes by translocating GLUT-4 to the plasma membrane not via the common insulin-regulated pathway. For this experiment, a selective inhibitor of the enzyme PI3-kinase, LY-249002, which is a key enzyme in the cellular transduction mechanism of insulin, was utilized. […] These findings also agree well with the longer onset of action of these derivatives as compared to the rapid action of insulin. Similar results were obtained when LY-249002 was present together with the derivatives throughout the entire incubation period.
as §1

GLUT-4 = assay: Cell surface biotinylation and western blot of GLUT-4 in L6 myotubes; assay type: cell-based, rat
Method: as §2, §3
Surface biotinylation of the cells was performed as previously described [Sasson et al (1997), Diabetologia, 40, 30-398].

glucose transporter = assay: [3H]dGlc uptake with unlabeled carbohydrates (affinity for the glucose transporter) in C2 myotubes; assay type: cell-based, mouse; conditions: 0.1 mM dGlc, increasing unlabeled carbohydrate
Method: FIG. 6: Lack of affinity of D-xylose for the glucose transporters. C2 myotubes preconditioned with 20 mM glucose were subjected to [^3H]dGlc uptake assay (0.1 mM dGlc) with increasing concentrations of unlabeled dGlc, glucose or xylose. The unlabeled carbohydrates were added to the [^3H]dGlc solution in the uptake assay.
The inventors have also determined the affinity of D-xylose for the glucose transporter. C2 myotubes preconditioned with 20 mM glucose were subjected to [^3H]dGlc uptake assay (0.1 mM dGlc) in the presence of increasing concentrations of unlabeled dGlc, glucose or xylose. The results of these experiments are depicted in FIG. 6. The affinity of D-xylose for the glucose transporter is 2 orders of magnitude lower compared to glucose. The final concentration of dGlc in the assay was 0.1 mM.

| Compound | HEXOSE UPTAKE (Percent of Control) Without Insulin (3T3-L1 adipocytes) | HEXOSE UPTAKE (Percent of Control) With Insulin (3T3-L1 adipocytes) | Fold Increase of Glucose Uptake [1] [fold] | EC50 [1] [µM] | ECmax [1] [mM] | also measured |
| --- | --- | --- | --- | --- | --- | --- |
| COC1OC[C@@H](OC)[C@H](OC)[C@H]1OC (stereo partly drawn) [1,2,3,4-O-tetramethyl xylopyranoside] | 95 ± 7% of Control | 104 ± 8% of Control | – | – | – | – |
| COC1OC[C@@H](O)[C@H](O)[C@H]1O (stereo partly drawn) [1-O-methyl xylopyranoside] | 154 ± 4% of Control | 156 ± 24% of Control | 1.5 | 6000 | 10 | – |
| CO[C@H]1C(O)OC[C@@H](O)[C@@H]1O (stereo partly drawn) [2-O-methyl xylopyranose] | 63 ± 7% of Control | 73 ± 15% of Control | – | – | – | – |
| CCO[C@@H]([C@H](O)CO)[C@@H](O)C=O [3-O-ethyl D-xylose] | – | – | 2.3 | 1300 | 4 | – |
| CO[C@H]1[C@H](O)COC(O)[C@@H]1O (stereo partly drawn) [3-O-methyl xylopyranose] | 201 ± 30% of Control | 159 ± 7% of Control | 2.0 | 2000 | 4 | – |
| CO[C@@H]1COC(O)[C@H](O)[C@H]1O (stereo partly drawn) [4-O-methyl xylopyranose] | 72 ± 112% of Control | 111 ± 2% of Control | – | – | – | – |
| COC[C@H]1OC(O)[C@H](O)[C@H]1O (stereo partly drawn) [5-O-methyl xylofuranose] | 70 ± 5% of Control | 53 ± 22% of Control | – | – | – | – |
| O=C[C@@H](O)[C@@H](O)[C@H](O)CO [D-lyxose] | – | – | – | – | – | effect of pentoses on the rate of hexose transport (C2 myotubes): to a lesser extent |
| O=C[C@H](O)[C@H](O)[C@H](O)CO [D-ribose] | – | – | – | – | – | effect of pentoses on the rate of hexose transport (C2 myotubes): to a lesser extent |
| COC(OC)[C@@H]1OC(c2ccccc2)O[C@@H]2COC(c3ccccc3)O[C@@H]21 (stereo partly drawn) [EH-3, 2,4:3,5-di-O-benzylidene-D-xylose-dimethylacetal] | – | – | 1.7 | 125 | 0.3 | – |
| CCSC(SCC)[C@@H]1OC(c2ccccc2)O[C@H](CO)[C@@H]1O (stereo partly drawn) [EH-40, 2,4-benzylidene-D-xylose-diethyl-dithioacetal] | – | – | – | – | – | PKB phosphorylation (PKB): time-dependent and sustained phosphorylation; effect of PI3-kinase inhibitor LY-249002 on the substance's stimulation of hexose transport (L6 myotubes): abolished |
| COC1OC[C@@H](O)[C@H](OC)[C@H]1O (stereo partly drawn) [EH-101, 1,3-O-dimethyl xylopyranoside] | 267 ± 57% of Control | 174 ± 28% of Control | 3.0 | 2000 | 4 | duration of activity following removal from the culture media ([1]; after being washed from cell cultures): 24 h; total cell content of GLUT-4 (GLUT-4; L6 cells exposed to 23.0 mM glucose (FIG. 10)): increased the total content of the transporter; translocation of GLUT-4 to the plasma membrane (GLUT-4; L6 myotubes, xylose derivatives in the absence of insulin, insulin 500 nM (FIG. 10)): induced significant translocation of GLUT-4 to the plasma membrane; effect of PI3-kinase inhibitor LY-249002 on the substance's stimulation of hexose transport (L6 myotubes): failed to affect; increase of uptake rate together with insulin (L6 myotubes; L6 myotubes, compound during last 24 hr plus insulin): ~3 fold |
| CCS[C@@H]1OC[C@@H](O)[C@H](O)[C@H]1O [EH-143, β-ethylthio-D-xylopyranoside] | – | – | – | – | – | hexose transport augmenting activity of thioalkyl derivatives [1]: hexose transport augmenting activity |
| CCSC(SCC)C1OC(c2ccccc2)OC(CO)C1OC [EH-169, 3-O-methyl-2,4-O-benzylidene-D-xylose-diethyl-dithioacetal] | – | – | – | – | – | increase of [3H]-2-deoxy-D-glucose uptake (L6 myotubes; 60 μM): 1.8 fold; increase of [3H]-2-deoxy-D-glucose uptake (L6 myotubes; 120 μM): 2 fold |
| O=CC[C@@H](O)[C@H](O)[C@H](O)CO [dGlc, 2-deoxy-D-glucose] | – | – | – | – | – | competition with [3H]dGlc (glucose transporter): competed markedly and similarly |
| di-4-(1-O-methyl-xylopyranoside)-phosphoryl-PEG-O-methyl [1-O-methyl D-xylose-PEG] | – | – | 1.9 | 300 | 0.6 | – |
